Key:
[1] = test system: renin mRNA, As4.1-hVDR cells; assay: Renin mRNA by Northern blot in As4.1-hVDR cells (vitamin D analog screening); type: cell-based, mouse; parameters: Relative inhibitory activity (renin suppressive activity of Gemini analogues): key to the marks not given beside the values; details: for Relative inhibitory activity (renin suppressive activity of Gemini analogues): 24 hours at 10-8, 10^-9 and 10^-10 M, renin mRNA by Northern blot, relative to 1,25-dihydroxyvitamin D3
Method: Vitamin D analogues listed in TABLE 1 were used to treat As4.1-hVDR cells at 10^−10, 10^−9 and 10^−8 M. Renin mRNA was analyzed by Northern blot. 36B4 is a control mRNA and represents a mouse acidic ribosomal phosphoprotein.
FIG. 4 is an histogram of evaluation of Gemini analogues by Northern blot analysis. The 11 Gemini compounds listed in TABLE 2 (indicated) were used to treat As4.1 hVDR cells at 10^−10, 10^−9, and 10^−8 M for 24 hours. Renin mRNA was quantitated by Northern blots. The quantitative data obtained at 10^−10 and 10^−9 M are shown in A and B. The # of each compound corresponds to the number shown in TABLE 2. E, ethanol-treated control, VD, 1,25(OH)2D3.
(§1) RNA isolation and northern blot. The kidney and liver were dissected and immediately placed into the Trizol Reagent (Invitrogen, Grand Island, N.Y.) for total RNA isolation according to the manufacturer's instruction. To determine renin or angiotensinogen mRNA expression, total RNA (20 μg/lane) was separated on a 1.2% agarose gel containing 0.6 M formaldehyde, transferred onto a Nylon membrane (MSI, Westborough, Mass.) and crosslinked in a UV crosslinker (Bio-Rad, Hercules, Calif.). Hybridization was performed as described by Li et al. (2001). Mouse renin and angiotensinogen cDNA probes were labeled with ^32P-dATP (ICN, Costa Mesa, Calif.) using the Prime-a-gene Labeling System (Promega, Madison, Wis.). After hybridization and washing, membranes were exposed to X-ray films at −80° C. for autoradiography. The relative amount of mRNA was quantitated using a Phospholmager (Molecular Dynamics, Sunnyvale, Calif.) and normalized with 36B4 mRNA.
As4.1 cell culture and transfection. As4.1 cells (ATCC, Manassas, Va.) were cultured in DMEM supplemented with 10% FBS at 37° C. and 5% CO2. For transient transfection, the cells were grown in 10-cm dishes to 50% confluence and transfected with pcDNA3.1, pcDNA-hVDR or pcDNA-PTH/PTHrPR plasmid (10 μg DNA/dish) by the standard calcium phosphate method. Twenty-four hr after transfection, the cells were treated for 24 hr with 5×10^−8 M of 1,25(OH)2D3 or ethanol in serum-free media, or with different doses of bovine PTH(1-34) as indicated. Total RNA was isolated and analyzed for renin mRNA expression by northern blot. For stable transfection, As4.1 cells were transfected with pcDNA3.1 or pcDNA-hVDR plasmid by the use of Superfect reagent (Qiagen, Valencia, Calif.) and selected with 350 μg/ml of G418 for two weeks. Individual colonies were picked, expanded and selected for VDR expression. The As4.1-hVDR stable clones were treated with different doses of 1,25(OH)2D3 for 24 hr in serum-free media, and total RNA were analyzed by northern blot to examine renin expression.

[2] = test system: 4.1 kb renin gene promoter (Ren-1c), As4.1-hVDR cells; assay: Renin gene promoter luciferase reporter assay in As4.1-hVDR cells; type: cell-based, mouse; details: 10^−8 M; for Suppression of renin promoter activity (luciferase): pGL-4.1 kb-Luc transfected As4.1-hVDR cells
Source text: As4.1-hVDR cells were transfected with pGL-4.1 kb-Luc, and treated with ethanol (E), 10^−8 M of 1,25(OH)2D3 (VD3) and different analogues as indicated.
A. Expression of hVDR mRNA in stable As4.1 clones. P, parental As4.1 cells; #57, As4.1 clone 57 stably transfected with pcDNA-hVDR; V, As4.1 clone stably transfected with the empty vector pcDNA3.1. B. Renin mRNA expression in As4.1 clone V (Vector) and #57 treated with ethanol (E) or different doses of 1,25(OH)2D3 as indicated. c. As4.1-hVDR cells (clone #57) were transfected with pGL3-Control, pGL-4.1 kb or pGL-117 bp luciferase reporter plasmid and then treated with ethanol (closed bar) or 10^−8 M of 1,25(OH)2D3 (open bar). Luciferase activity was determined 48 hr after transfection. Similar results were obtained in other stable clones.
Renin gene promoter analysis. Plasmid pR1C-4.1 CAT that contains 4.1 kb 5′-flanking sequence of mouse Ren-1^c gene (Petrovic et al. 1996) was provided by Dr. K. W. Gross (Roswell Park Cancer Institute, Buffalo, N.Y.). To generate pGL-117 bp reporter plasmid, the 123 bp renin minimal promoter fragment (+6 to −117) was released from pR1C-4.1 CAT with XbaI and BamHI and inserted into the HindIII site of pGL3-basic vector (Promega, Madison, Wis.). To generate pGL-4.1 kb reporter plasmid, the BamHI fragment (−4.1 kb to −118 bp) from pRI C-4.1 CAT was inserted into the BglII site of pGL-117 bp. To analyze the activity of renin gene promoter, As4.1-hVDR cells were transfected with the reporter plasmids by electroporation according to Shi et al. (2001) using a Bio-Rad Gene Pulser (Bio-Rad, Hercules, Calif.). pCMV-β-gal plasmid was co-transfected as an internal control. pGL3-control plasmid (Promega) was used as the positive control. The transfected cells were treated with ethanol or 10^−8 M of 1,25(OH)2D3 in Opti-MEM medium (Invitrogen) containing 2% charcoal-treated FBS four hr after electroporation, and luciferase activity was determined at 48 hr after initial transfection, using the Luciferase Assay System (Promega). Luciferase activity was normalized to β-gal activity obtained from the same electroporation, and presented as fold induction based on the basal activity of pGL3-basic empty vector determined in the same experiment.

renin mRNA, As4.1 cells = assay: Renin mRNA by northern blot in As4.1 cells with or without transient transfection; type: cell-based, mouse
Source text: A. As4.1 cells were transiently transfected with (+) or without (−) pcDNA-hVDR plasmid containing the full-length human VDR cDNA and then. treated with 5×10^−8 M of 1,25(OH)2D3 (+) or ethanol (−) for 24 hrs. Total cellular RNA was isolated and analyzed by northern blot with renin and 36B4 cDNA probes. B. Quantitative results of northern blot analyses obtained from three independent experiments. C, ethanol-treated; VD, 1,25(OH)2D3-treated; T, transfected with pcDNA-hVDR and treated with ethanol; T/VD, transfected with pcDNA-hVDR and treated with 1,25(OH)2D3. *, P<0.001 vs. C, VD or T value. C. Renin mRNA expression in As4.1 cells (left panel), and in As4.1 cells transfected with pcDNA-PTH/PTHrPR containing the rat PTH/PTHrP receptor cDNA (right panel) and treated with bovine PTH (1-34) as indicated. −, untreated.
as §1
As4.1 cell culture and transfection. […] Total RNA was isolated and analyzed for renin mRNA expression by northern blot. […] The As4.1-hVDR stable clones were treated with different doses of 1,25(OH)2D3 for 24 hr in serum-free media, and total RNA were analyzed by northern blot to examine renin expression.

renin mRNA in the kidney = assay: Renin mRNA in the kidney of treated mice (Northern blot); type: in vivo, mouse
Method: A. […] The 2 doses were given in two consecutive days at 9 am. The 5 doses were given in three consecutive days at 9 am and 7 pm for the first two days, and at 9 am on the third day. Total renal RNA was isolated 6 hr after the last injection. Renin, calbindin-D9k (CaBP-D9k) and 36B4 mRNA levels were determined by Northern blot analysis. B. Quantitation of renin mRNA levels.
(A) Blood ionized calcium levels.
As a control for vitamin D action, Calbindin-D9k stimulation was measured. Quantitative data were presented below the Northern blot gels.
Total kidney RNAs were separated on agarose gels (20 μg/lane). Membranes were hybridized sequentially with 32P-labeled renin and 36B4 cDNA probes. The relative amount of renin mRNA was quantitated after being normalized with 36B4 mRNA levels. […] (B) Quantitative results-from Northern blots in (A).
Animals and treatment. […] VDR^−/− and Gcm2^−/− mice were generated through breeding of heterozygous mice and identified by PCR with tail genomic DNA as the template, and the wild-type littermates were used as controls. […] To increase the sodium load, mice were fed the normal rodent diet supplemented with 8% NaCl for 1, 3, 5 and 7 days. […] Wild-type mice were injected (i.p.) with vehicle or 30 pmole of 1,25(OH)2D3 dissolved in propylene glycol. Mice were sacrificed by exsanguination under anesthesia and the blood was collected into ice-cold tubes for serum isolation, or into ice-cold tubes containing 50 μl of EDTA (pH 8.0) and 100 U/ml aprotinin for plasma isolation. The determination of water and food intake, as well as urine collection, were carried out by using metabolic cages.
as §1, with “To determine renin or angiotensinogen mRNA expression, total RNA (20 μg/lane) was separated on a 1.2% agarose gel containing 0.6 M formaldehyde, transferred onto a Nylon membrane (MSI, Westborough, Mass.) and crosslinked in a UV crosslinker (Bio-Rad, Hercules, Calif.). Hybridization was performed as described by Li et al. (2001).” left out

[3] = Blood ionized calcium and survival of treated mice; type: in vivo, mouse; details: for Blood calcium level: daily dose 1.5 μg/kg body weight for one week
Source text: Two-month old wildtype mice were fed the normal diet supplemented with 2.5% strontium chloride for 7 weeks before sacrifice. A. Northern blot analysis of renin mRNA expression in the kidney from non-treated and strontium-treated wildtype mice. Each lane represents an individual animal. B. Quantitative results of the northern analysis. C. Blood ionized calcium concentration determined at the end of the treatment (n=5 in each group). In both b and c, NT, non-treated; STR, strontium-treated, *, P<0.01 vs. NT value.
(A) Blood ionized calcium levels. Normal mice (n=5) were treated with vehicle (control), 1,25(OH)2D3 (VD3) or compound #9 at a daily dose of 1.5 μg/kg body weight for one week. […] (B) Renin mRNA levels in the kidneys of treated mice, as determined by quantitative Northern blots. *, P<0.01.
Measurement of blood and urine parameters. The concentration of blood ionized calcium was determined using a Ciba/Coming 634 Ca^++/pH analyzer (Chiron Diagnostics, East Walpole, Mass.) from 50 μl of whole blood obtained from tail snipping. Blood glucose concentrations were determined by using One Touch Sure Step test strips (Life Scan, Milpitas, Calif.). Serum intact parathyroid hormone (iPTH) was determined using a commercial ELISA kit (Immutopics, San Clemente, Calif.). The concentration of serum and urinary Na^+, K^+, and creatinine was determined by a Beckman Coulter CX5 Autoanalyzer as described by Li et al. (2001).

[4] = wildtype mice, normal diet with 2.5% strontium chloride for seven weeks

For `C=C1/C(=C\C=C2/CCC[C@]3(C)[C@@H]([C@H](C)CCCC(C)(C)O)CC[C@@H]23)C[C@@H](O)C[C@@H]1O` [1,25-dihydroxyvitamin D3], the “Renin expression in stable As4.1-hVDR clones at different doses” value ([1]; not seen in As4.1-pcDNA cells) was “dose-dependent suppression”, the “Reduction of the level of renin mRNA” value ([1]; stable As4.1-hVDR cells, 10^−8 M, 24 hr) was “about 90%” and the “Time of treatment after which suppression of renin mRNA was evident” value ([1]; time-course studies, As4.1-hVDR cells) was 6 h. The “Effect on the activity of the SV40 promoter in pGL3-Control plasmid” value ([2]; As4.1-hVDR cells) was “no effect”, the “Reduction of the activity of the 4.1 kb renin gene promoter” value ([2]; pGL-4.1 kb, luciferase at 48 hr after transfection) was “more than 80%” and the “Renin mRNA expression in As4.1 cells” value (renin mRNA, As4.1 cells; As4.1 cells not transfected, 5×10^−8 M) was “moderate reduction”. The “Reduction of renin mRNA expression” value (renin mRNA, As4.1 cells; As4.1 cells transiently transfected with pcDNA-hVDR, 5×10^−8 M, 24 hrs) was “about 90%”, the “mRNA of renal calbindin-D9k” value (renin mRNA in the kidney; wildtype mice, 30 pmole/dose i.p., control vitamin D target gene) was “significantly increased” and the “Decrease of renal renin expression” value (renin mRNA in the kidney; wildtype mice, five doses of 30 pmole i.p. in three days) was 50%. The “Decrease of renal renin expression” value (renin mRNA in the kidney; wildtype mice, two doses of 30 pmole/dose i.p. in two consecutive days) was 35%, the “Deaths on day 7” value ([3]; normal mice, daily dose 1.5 μg/kg body weight) was 2 animals out of the 5 mice and the Blood calcium level ([3]; normal mice) was “severe hypercalcemia”.

In the case of `C=C1C(=CC=C2CCCC3(C)C2CCC3C(CCCC(C)(C)O)CCCC(C)(C)O)CC(O)CC1O` (centres unmarked) [#4, 1,25-dihydroxy-21(3-methyl-3-hydroxy-butyl)-cholecalciferol], the “Relative inhibitory activity (renin suppressive activity of Gemini analogues)” value ([1]; As4.1-hVDR cells) is reported as “++” and the “Suppression of renin promoter activity (luciferase)” value [2] is reported as “super-potency”.

In the case of `CC(C)(O)CCCC(CCCC(C)(C)O)C1CCC2C(=CC=C3CC(O)CC(O)C3)CCCC21C` (centres unmarked) [#9, 1,25-dihydroxy-21(3-methyl-3-hydroxy-butyl)-19-nor-cholecalciferol], the “Suppression of renin promoter activity (luciferase)” value [2] is reported as “super-potency”, the “Renin mRNA expression in the kidneys” value (renin mRNA in the kidney; normal mice, daily dose 1.5 μg/kg body weight for one week) is reported as “reduced” and the “Reduction in renin mRNA levels in the kidneys” value (renin mRNA in the kidney; normal mice, daily dose 5 μg/kg body weight for one week) is reported as 54%. For the same compound, the “Reduction in renin mRNA levels in the kidneys” value (renin mRNA in the kidney; normal mice, daily dose 12 μg/kg body weight for one week) was 76% and the Blood calcium level ([3]; normal mice) was “minimal increase”.

For `C=C1C(=CC=C2CCCC3(C)C2CCC3C(CCCC(C)(C)O)CCC(O)C(C)(C)O)CC(O)CC1O` [#18, 1,25-dihydroxy-21(2R,3-hydroxy-3-methylbutyl)-20S-cholecalciferol], the “Relative inhibitory activity (renin suppressive activity of Gemini analogues)” value ([1]; As4.1-hVDR cells) was “++”.

With `[Cl-].[Cl-].[Sr+2]` [strontium, strontium chloride] the “Renin mRNA expression in the kidney” value (renin mRNA in the kidney; [4]) was “significant increase” and the Blood ionized calcium [3, 4] was “hypocalcemic”.

In the case of “PTH(1-34): bovine PTH(1-34), parathyroid hormone fragment used to treat As4.1 cells (AVSEIQFMHNLGKHLSSMERVEWLRKKLQDVHNF; UniProt P01268 32-65, looked up, fragment)”, the “Renin expression in PTH-treated As4.1 cells” value (renin mRNA, As4.1 cells; As4.1 cells, or As4.1 transfected with pcDNA-PTH/PTHrPR, different doses) is reported as “No increase in renin expression”.

Reference: patent publication US20050113348A1, “Vitamin D and vitamin D analogs or derivatives as new anti-hypertensive agents” (priority 2003, published 2005)
